In patent US11236047B2 (ASTEX THERAPEUTICS LIMITED, priority 2017, dated 2022):

Columns and labels:
MDM2-p53 interaction = MDM2-p53 interaction (Homo sapiens (Human), UniProt Q00987); conditions: for inhibition at 0.001 µM: read-out: MDM2 % inhibition @0.0010
SN40R2 cells = assay: Protocol B: SN40R2 CellTiter-Glo luminescent cell viability assay; conditions: for inhibition at 10 µM: read-out: SN40R2 % inhibition at 10, Protocol B, SN40R2, at 10 μM

MDM2-p53 interaction, sequence (Q00987 whole entry): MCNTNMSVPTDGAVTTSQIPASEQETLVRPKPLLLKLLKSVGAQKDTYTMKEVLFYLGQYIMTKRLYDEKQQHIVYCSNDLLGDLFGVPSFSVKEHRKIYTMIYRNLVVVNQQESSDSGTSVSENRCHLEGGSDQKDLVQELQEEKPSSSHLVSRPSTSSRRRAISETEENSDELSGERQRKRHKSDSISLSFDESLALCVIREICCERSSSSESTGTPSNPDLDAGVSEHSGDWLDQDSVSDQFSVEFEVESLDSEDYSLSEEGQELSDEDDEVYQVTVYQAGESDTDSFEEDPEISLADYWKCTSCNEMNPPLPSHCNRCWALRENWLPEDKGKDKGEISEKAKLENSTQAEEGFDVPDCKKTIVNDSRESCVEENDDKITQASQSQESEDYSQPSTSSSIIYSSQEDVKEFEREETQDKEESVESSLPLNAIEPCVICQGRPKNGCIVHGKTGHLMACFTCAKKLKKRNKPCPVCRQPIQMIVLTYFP

Row | inhibition at 0.001 µM (MDM2-p53 interaction) [%] | Structure (SMILES) | inhibition at 10 µM (SN40R2 cells) [%] | other results
1 | 79 | CCC(O)(c1cc(F)c2c(c1)C(=O)N(Cc1ncc(Cl)cn1)[C@@]2(OC)c1ccc(Cl)cc1)C1(F)CCN(C2COC2)CC1 (single isomer, unassigned) [Example 552] | 7 | –
2 | 83 | CCC(O)(c1cc(F)c2c(c1)C(=O)N(Cc1ncc(Cl)cn1)[C@@]2(O[C@H]1C[C@@H](O)C1)c1ccc(Cl)cc1)C1(F)CCN(C)CC1 (single isomer, unassigned) [Example 570] | 26 | –
3 | – | CCC(O)(c1cc(F)c2c(c1)C(=O)N(Cc1ncc(Cl)cn1)[C@@]2(O[C@H]1C[C@@H](O)C1)c1ccc(Cl)cc1)C1(F)CCNCC1 (single isomer, unassigned) [Example 542] | -1 | inhibition at 0.01 µM (MDM2-p53 interaction; read-out: MDM2 % inhibition @0.010): 57%
4 | 65 | CCC(O)(c1cc(F)c2c(c1)C(=O)N(Cc1ncc(Cl)cn1)[C@@]2(OCCO)c1ccc(Cl)cc1)C1(F)CCN(C)CC1 (single isomer, unassigned) [Example 565] | 11 | –
5 | 68 | CCC(O)(c1cc(F)c2c(c1)C(=O)N(Cc1ncc(Cl)cn1)[C@@]2(OC[C@@H](C)O)c1ccc(Cl)cc1)C1(F)CCNCC1 (single isomer, unassigned) [Example 543] | -6 | –
6 | – | CC[C@@](O)(c1cc(F)c2c(c1)C(=O)N(Cc1ncc(C#N)cn1)[C@@]2(O[C@H]1CCOC1)c1ccc(Cl)cc1)C1(F)CCOCC1 [Example 507, 2-{[(1R)-1-(4-chlorophenyl)-7-fluoro-5-[(1R)-1-(4-fluorooxan-4-yl)-1-hydroxypropyl]-3-oxo-1-[(3S)-oxolan-3-yloxy]-2,3-dihydro-1H-isoindol-2-yl]methyl}pyrimidine-5-carbonitrile] | – | inhibition at 0.003 µM (MDM2-p53 interaction; read-out: MDM2 % inhibition @0.0030): 65%; inhibition at 3 µM (SN40R2 cells; read-out: SN40R2 % inhibition at 3, Protocol B, SN40R2, at 3 μM): 5%
7 | 38 | CCC(O)(c1cc(F)c2c(c1)C(=O)N(Cc1ncc(C#N)cn1)[C@@]2(OC)c1ccc(Cl)cc1)C1(F)CCN(C)CC1 (single isomer, unassigned) [Example 575] | 14 | –
8 | – | CC[C@](O)(c1cc(F)c2c(c1)C(=O)N(Cc1ncc(C#N)cn1)[C@@]2(O[C@H]1C[C@@H](O)C1)c1ccc(Cl)cc1)C1(F)CCOCC1 [Example 506, 2-{[(1R)-1-(4-chlorophenyl)-7-fluoro-5-[(1S)-1-(4-fluorooxan-4-yl)-1-hydroxypropyl]-3-oxo-1-[cis-3-hydroxycyclobutoxy]-2,3-dihydro-1H-isoindol-2-yl]methyl}pyrimidine-5-carbonitrile] | 2 | inhibition at 0.03 µM (MDM2-p53 interaction; read-out: MDM2 % inhibition @0.030): 36%
9 | 82 | CCC(O)(c1cc(F)c2c(c1)C(=O)N(Cc1ccc(Cl)cn1)[C@@]2(O[C@H]1CCOC1)c1ccc(Cl)cc1)C1(F)CCNCC1 (single isomer, unassigned) [Example 548] | 111 | –
10 | 86 | CCC(O)(c1cc(F)c2c(c1)C(=O)N(Cc1ncc(Cl)cn1)[C@@]2(OC)c1ccc(Cl)cc1)C1(F)CCNCC1 (single isomer, unassigned) [Example 544] | 109 | –
11 | 84 | CCC(O)(c1cc(F)c2c(c1)C(=O)N(Cc1ncc(Cl)cn1)[C@@]2(O[C@H]1CCOC1)c1ccc(Cl)cc1)C1CCNCC1 (single isomer, unassigned) [Example 448] | – | inhibition at 30 µM (SN40R2 cells; read-out: SN40R2 % inhibition at 30, Protocol B, SN40R2, at 30 μM): 48%
12 | 47 | CCC(O)(c1cc(F)c2c(c1)C(=O)N(Cc1ncc(C#N)cn1)[C@@]2(O[C@H]1CCOC1)c1ccc(Cl)cc1)C1(F)CCN(C)CC1 (single isomer, unassigned) [Example 561] | 12 | –
13 | 76 | CCC(O)(c1cc(F)c2c(c1)C(=O)N(Cc1ncc(Cl)cn1)[C@@]2(OC)c1ccc(Cl)cc1)C1(F)CCN(C)CC1 (single isomer, unassigned) [Example 563] | 72 | –
14 | 59 | CCC(O)(c1cc(F)c2c(c1)C(=O)N(Cc1ncc(Cl)cc1O)[C@@]2(O[C@H]1C[C@@H](O)C1)c1ccc(Cl)cc1)c1cn(C)cn1 (single isomer, unassigned) [Example 487] | 12 | –
